# Patent US20250144099A1, “INK4 TUMOR SUPPRESSOR PROTEINS MEDIATE RESISTANCE TO CDK4/6 KINASE INHIBITORS” (MEMORIAL SLOAN-KETTERING CANCER CENTER, priority 2021, published 2025)
# “Also recorded” adds a separate entry of the source.
# Assays:
# [1] = test system: CDK6-overexpressing xenografts; assay: Efficacy study, cell-derived xenograft; format: in vivo, NSG mice; conditions: BSJ-05-017 50 mg/kg i.p., BSJ-03-096 50 mg/kg p.o., 25-35 days
# Method: (§1) Efficacy study. NOD.Cg-Prkdc Il2rg<tm1Wjl>/SzJ (NSG) mice were obtained from the Jackson Laboratory (Stock #: 005557). Each mouse was injected with MCF7 parental, CDK6-ovexpressing or PTEN loss cells subcutaneously 1 week after the implantation of estradiol pellets (25 mg). […] Tumor volumes were recorded every 3-4 days. Mice were sacrificed if tumors reached 1000 mm^3 or at the end of the experiment. Tumors were collected and processed as described above.
# [2] = test system: MCF7 parental cell-derived xenografts; assay: Efficacy study, cell-derived xenograft; format: in vivo, NSG mice; conditions: ribociclib 25 mg/kg p.o., BSJ-05-017 50 mg/kg i.p., BSJ-03-096 50 mg/kg p.o., 25-35 days
# Method: as §1
# [3] = test system: shPTEN (PTEN loss) xenografts; assay: Efficacy study, cell-derived xenograft; format: in vivo, NSG mice; conditions: BSJ-05-017 50 mg/kg i.p., BSJ-03-096 50 mg/kg p.o., 25-35 days
# Method: as §1
# phosphorylation of Rb = assay: Immunoblotting of Rb phosphorylation in cells; format: cell-based, human; conditions: FAT1 loss / CDK6-high CDK4/6i-resistant MCF7 cells
# Method: (§2) Cell lysates were collected in RIPA buffer (Thermo Fisher Scientific) supplemented with protease and phosphatase inhibitors (Pierce). Protein concentration was quantified by using the BCA kit (Fisher Scientific). […] of protein lysates were loaded onto 4-12% SDS-PAGE gels (Invitrogen) for electrophoresis and transferred onto nitrocellular membranes. Blots were blocked with Intercept™ (TBS) Blocking Buffer (LI-COR Bioscience #927-60001) and incubated with primary antibody at 4° C. overnight. Secondary antibodies conjugated with fluorescence (LI-COR Bioscience #926-68071 and #926-32210) were incubated for 1 h at room temperature and blots were scanned by Odyssey Clx Imaging System from LI-COR Bioscience.
# CDK6-high cells = assay: Senescence Green flow cytometry assay; format: cell-based, human; conditions: 8 days; BSJ-05-017 500 nM, abemaciclib 100 nM, palbociclib 500 nM
# Method: (§3) Senescence analysis. […] Cells were harvested using trypsin/EDTA, then stained with the CellEvent Senescence Green Flow Cytometry Assay Kit (Invitrogen) according to the manufacturer's instructions. Briefly, cells were fixed with 2% paraformaldehyde for 15 min at room temperature and stained with the CellEvent Senescence Green Probe for 2 hours at 37° C. without CO2. After incubation, cells were washed with PBS 3 times and resuspended in FACS buffer (PBS with 2% FBS) for analysis on BD Biosciences LSR Fortessa using a 488 nm laser and 530 nm/30 filter (BD Biosciences). Data analysis was performed with FCS Express 7 (De Novo Software).
# MCF-7 parental cells = assay: Senescence Green staining and cell cycle analysis; format: cell-based, human; conditions: 500 nM; senescence 8 days, cell cycle 24 h
# Method: as §3
# Cell cycle analysis. […] Cells were detached from the cell culture dish with trypsin/EDTA, then washed with PBS and fixed in 70% ice-cold EtOH overnight. Prior to staining, EtOH was removed, and cells were washed twice with FACS buffer. Cells were then resuspended in staining buffer containing 1000 μl FACS buffer with 2 μg/ml propidium iodide (Invitrogen) and 100 μg/ml RNase A (Invitrogen). Cell cycle profiles were measured with BD Biosciences LSR Fortessa and analyzed with FCS Express 7.
# [4] = test system: prostate cancer cell 22RV1; assay: Colony formation assay; format: cell-based; conditions: 21 days treatment
# CDK6 = CDK6 (Homo sapiens, UniProt Q00534); assay: Immunoblotting of CDK6 degradation in cells; format: cell-based; design: MCF7 cells that lost FAT1 expression and with high CDK6 expression; endogenous in cells; host or cells: MCF-7 FAT1 loss cells (also MCF-7 parental)
# CDK6, sequence (Q00534 whole entry): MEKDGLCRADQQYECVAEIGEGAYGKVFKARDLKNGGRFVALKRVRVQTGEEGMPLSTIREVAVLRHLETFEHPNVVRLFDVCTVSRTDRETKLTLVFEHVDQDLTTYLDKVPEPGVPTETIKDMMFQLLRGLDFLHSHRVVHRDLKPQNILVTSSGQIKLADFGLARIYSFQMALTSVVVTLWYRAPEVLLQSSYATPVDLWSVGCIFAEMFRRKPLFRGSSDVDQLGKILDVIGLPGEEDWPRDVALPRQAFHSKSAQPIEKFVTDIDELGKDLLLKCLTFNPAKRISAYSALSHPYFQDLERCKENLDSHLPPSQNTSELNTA
# Method: as §2
structure (smiles),measurement,setting,value
"CC(=O)c1c(C)c2cnc(Nc3ccc(N4CCN(CCCCC(=O)N[C@H](C(=O)N5C[C@H](O)C[C@H]5C(=O)N[C@@H](C)c5ccc(-c6scnc6C)cc5)C(C)(C)C)CC4)cn3)nc2n(C2CCCC2)c1=O [BSJ-05-017, (2S,4R)-1-((S)-2-(5-(4-(6-((6-acetyl-8-cyclopentyl-5-methyl-7-oxo-7,8-dihydropyrido[2,3-d]pyrimidin-2-yl)amino)pyridin-3-yl)piperazin-1-yl)pentanamido)-3,3-dimethylbutanoyl)-4-hydroxy-N—((S)-1-(4-(4-methylthiazol-5-yl)phenyl)ethyl)pyrrolidine-2-carboxamide]",durable tumor inhibition (percent),[1],−64.9%
same,tumor response,[2],sensitive
same,durable tumor inhibition (percent),[3],~47.4%
same,inhibition of phosphorylation of Rb (and downstream E2F1/cyclin A2),phosphorylation of Rb,effective inhibition of the phosphorylation of Rb
same,senescence-marker positive cells,CDK6-high cells,significantly higher number of cells into senescence compared with abemaciclib or palbociclib
same,senescence and cell cycle arrest,MCF-7 parental cells,induces senescence and cell cycle arrest to a same extent as abemaciclib and palbociclib
same,colony formation,[4],more sensitive to BSJ-05-017 than to palbociclib
same,degradation of CDK6,"CDK6; FAT1 loss / CDK6-high CDK4/6i-resistant MCF7 cells, 24 h treatment",most significant degradation of both CDK4 and CDK6; also recorded: high potency in degrading CDK4 and CDK6
same,degradation of CDK6,CDK6; MCF7 cells with overexpression of CDK6,effectively degrade CDK4 and CDK6
